Experimental data from ChEMBL document CHEMBL5053552, “Design, Synthesis, and Antiviral activity of 1,2,3,4-Tetrahydropyrimidine derivatives acting as novel entry inhibitors to target at "Phe43 cavity" of HIV-1 gp120” (Bioorg Med Chem, 2021).
The source made the active and inactive calls. The rule behind the calls is not given here.

How the values were obtained:
[1] = system: Human immunodeficiency virus 1; assay: Antiviral activity against HIV1 931N101 infected in human SupT1 cells assessed as inhibition of viral entry mesaured after 96 hrs by p24- ELISA assay; format: functional, organism-based; settings: Human immunodeficiency virus 1, 931N101, SUP-T1, 96 h
[2] = Cytotoxicity against human SUP-T1 cells assessed as reduction in cell viability measured after 16 hrs by MTT assay; format: cell-based
SUP-T1 = assay: Inhibition of HIV1 gp120 interaction with CD4 in human SUP-T1 cells expressing CCR5, CXCR4 assessed as decrease in viral entry by fluorescent microscopic assay; format: cell-based; settings: Human immunodeficiency virus 1
[3] = system: Human immunodeficiency virus 1; assay: Antiviral activity against HIV1 931N101 infected in human SupT1 cells assessed as inhibition of viral entry at 2.2 uM mesaured after 96 hrs by p24- ELISA assay relative to control; format: functional; settings: Human immunodeficiency virus 1, 931N101, SUP-T1

SMILES | IC50 [1] [µM] | CC50 at 16 h [2] [µM] | inhibition (SUP-T1) | inhibition at 2.2 µM [3] [%]
CCOC(=O)C1=C(C)NC(=S)NC1c1ccc(Br)cc1 (configuration not stated) | 4.2 | 136 |  | 
CCOC(=O)C1=C(C)NC(=O)NC1c1ccc(O)cc1 (configuration not stated) | 6 | 132 |  | 
CCOC(=O)C1=C(C)NC(=O)NC1c1ccccc1C (configuration not stated) | 9.5 | 136 |  | 
CCOC(=O)C1=C(C)NC(=S)NC1c1cc(Br)ccc1O (configuration not stated) | 3.7 | 83.4 |  | 
CCOC(=O)C1=C(C)NC(=S)NC1c1ccc(O)c(OC)c1 (configuration not stated) | 2.2 | 101 | Active | 50
CCOC(=O)C1=C(C)NC(=O)NC1c1ccc(OC)cc1 (configuration not stated) | 6.2 | 103 |  | 
CCOC(=O)C1=C(C)NC(=S)NC1c1ccc(OC)cc1 (configuration not stated) | 4.5 | 110 |  | 
CCOC(=O)C1=C(C)NC(=S)NC1c1ccc(O)cc1 (configuration not stated) | 4 | 88.9 |  | 
CCOC(=O)C1=C(C)NC(=O)NC1c1ccc(O)c(OC)c1 (configuration not stated) | 8.5 | 141 | Active | 
CCOC(=O)C1=C(C)NC(=O)NC1c1cc(Br)ccc1O (configuration not stated) | 5.3 | 138 |  | 
CCOC(=O)C1=C(C)NC(=S)NC1c1ccccc1C (configuration not stated) | 5.2 | 124 |  | 
CCOC(=O)C1=C(C)NC(=S)NC1c1cccc(Cl)c1 (configuration not stated) | 3.5 | 97.6 |  | 
